# Reference: patent publication US11401255B2, “Small molecule activators of Parkin enzyme function” (Mayo Foundation for Medical Education and Research, priority 2016, dated 2022)
# Counter-ions that a name gives are not always drawn. Like-named read-outs stand apart in the source and are kept apart here.
# How the values were obtained:
# [1] = target: FLAG-Parkin C431S (Homo sapiens (Human), UniProt O60260, C431S); test: Ub-charging of FLAG-Parkin C431S (western blot); format: cell-based; details: 1 μM, 2 h before 3.5 μM CCCP (FIG. 21)
# Method: Another measure of Parkin activation is Ub charging of Parkin. Parkin receives Ub from an E2 enzyme to transfer it to a substrate protein. The Ub is bound by Parkin C431 in an unstable thioester bond. A serine substitution of this amino acid (C431S) leads to a stable oxyester bond. The bound Ub can then be visualized as a band shift in Western blot experiments. HeLa 3×FLAG-Parkin C431S cells were seeded in 12-well plates and allowed to attach overnight. Cells were treated with 5 μM (top panels) or 1 μM (bottom panels) of Compounds 1, 2, 3, 4, and 31 2 h before adding CCCP for another 2 h. 10 μM CCCP was added to positive control (PC) wells whereas all other samples received a low dose concentration of 3.5 μM. Cells were harvested in boiling hot SDS lysis buffer and protein concentration was determined by BCA. Samples were split and left either untreated or were treated with NaOH as indicated. Samples were run on an 8-16% Tris-Glycine gel, blotted onto membranes and probed with antibodies against Flag and pS65-Ub. GAPDH served as a loading control. Band shift indicates Parkin binding to Ubiquitin, which is cleavable with NaOH.
# Cells were harvested in RIPA buffer or NP-40 lysis buffer containing protease and phosphatase inhibitors (Complete and PhosStop, Roche Applied Science) with the exception of Parkin Ub charging experiments where preheated (95° C.) SDS lysis buffer (50 mM Tris pH 7.6, 150 mM NaCl, 1% SDS) was used. Concentration of cell lysates was determined with bicinchoninic acid (Pierce Biotechnology). For Parkin Ub charging experiments, aliquots of lysates were treated with […] for 1 h at 37° C. pH was neutralized with equinormal HCl.
# Protein was subjected to SDS-PAGE using 4-20% or 8-16% Tris-Glycine gels (Invitrogen) and transferred onto polyvinylidene fluoride (PVDF) (Millipore). Membranes were incubated with primary antibodies overnight at 4° C. followed by HRP-conjugated secondary antibodies (1:10,000; Jackson ImmunoResearch Laboratories). Primary antibodies used: beta III tubulin (rabbit, 1:1000, CST, #5568, CST), FLAG (mouse, 1:250,000, Sigma, F3165), GAPDH (mouse, 1:100,000-500,000, Meridian Life science, H86504M), GST (1:10,000, Sigma, G7781), MFN1 (mouse, 1:5,000, Abcam, ab57602), MFN2 (mouse, 1:5,000, Abcam, ab56889), Parkin (mouse, 1:2,000, Cell Signaling, #4211), pSer65-Ub (rabbit, 1:15,000, in-house (Fiesel et al., EMBO Reports (2015) 16:1114-30; Fiesel et al., (2015) Autophagy 11:2125-2126)), TOM70 (rabbit, 1:5,000, Proteintech, 14528-1-AP), UBE2L3 (rabbit, 1:10,000, ProteinTech, 14415-1-AP), VDAC1 (mouse, 1:5,000, Abcam, ab14734), vinculin (mouse, 1:100,000, Sigma, V9131).
# HeLa 3×FLAG-Parkin C431S cells were seeded in 6-well plates and allowed to attach overnight. Cells were treated with […] of compounds 5, 21-28, 32, 33, or 43-46 2 h before adding CCCP for another 2 h. 10 VM CCCP was added to positive control (PC) wells, 3.5 μM CCCP to compound (+) and negative control (NC) wells. […] Cells were harvested in boiling hot SDS lysis buffer and protein concentration was determined by BCA. Samples were split and left either untreated or were treated with NaOH as indicated. Samples were run on an 8-16% Tris-Glycine gel, blotted onto membranes and probed with antibodies against Flag. Vinculin served as a loading control. Band shift indicates Parkin binding to Ubiquitin, which is cleavable with NaOH (FIG. 21).
# [2] = target: Parkin (Homo sapiens (Human), UniProt O60260); test: Primary HCI assay of EGFP-Parkin translocation to mitochondria; format: cell-based; details: primary assay screen, Parkin translocation to mitochondria
# Method: GFP-Parkin is localized throughout the cell in unstressed cells but translocates to mitochondria when the mitochondrial membrane potential is compromised and Parkin is activated. After automated image acquisition of fixed cells, regions of interest of each cell were defined with the analysis software. […] To quantify the relocalization of GFP-Parkin to mitochondria, the ratio of the GFP intensity in the cytoplasm and the nucleus was calculated. Under non-stressed condition, this ratio is about 1. FIG. 1B is a bar graph showing the results of the assay with a Z factor (Z′) of 0.5-0.8, which indicates its robustness and usefulness as a screening assay. Validation of the assay has been performed by using PINK1 siRNA.
# FIGS. 2A-2C show a primary HCI assay with CCCP titration. FIG. 2A is a graphic description of the primary HCI assay of EGFP-Parkin translocation. HeLa cells stably expressing GFP-Parkin were seeded with 1350 cells per well in 384-well plates (25 μL per well). Cells were allowed to attach overnight before drug was added 2× concentrated in a volume of 25 μL in triplicates. After 2 h, 50 μL of a 2× low-dose CCCP (yielding a final concentration of 3.5 μM CCCP) was added to all wells that contained test compounds and for the negative control. For positive control wells, CCCP was added in a final concentration of 10 μM. After 2 h incubation with CCCP, cells were fixed and labeled with Hoechst for at least 1 h before cells were imaged. […] Values were being normalized to negative and positive control values and plotted as % activity. Z′ was calculated for quality control. Positive controls were indicated in green, negative control wells in red. Drugs that lead to more than 50% activity are considered positive (blue).
# Functional testing of compounds was performed using an established primary HCI assay for Parkin translocation, which correlates well with enzymatic activation (Fiesel et al., J. Cell Science (2014) 127:3488-3504; Fiesel et al., Human Mutation (2015) 36:774-786). In brief, 1400 HeLa cells stably expressing EGFP-Parkin were seeded into optical 384-well plates (Greiner BioOne) in 25 μL media and allowed to adhere for 40 h. Compounds 1, 2, 3, 4, and 31 were added to the plate as 2× concentrated stocks. Control wells were treated with equal volume of DMSO in media. After 2 h, unless otherwise stated, CCCP was added as 2× concentrated stock with a final assay concentration of 10 μM for PC wells and 3.5 μM for test and NC wells. This low dose of CCCP was experimentally determined by a dose response curve of CCCP to result in no Parkin translocation (FIG. 13). After another 2 h, cells were fixed in 4% paraformaldehyde for 10 min and stained with Hoechst 33342 (1:5000, Invitrogen) before plates were imaged and analyzed.
# Image acquisition was performed on a BD Pathway 855 with the Attovision V1.6 software (BD Biosciences). Wells were imaged with a 20× objective using a 2×2 montage with laser autofocus. EGFP exposure time was 0.0175 sec, Hoechst 0.0015 sec. Raw images were not processed and directly analyzed using a build-in ‘RING—2 output’ algorithm. Values were exported and normalized using JMP 11 software and transferred to GraphPad Prism 7 for quality control, graphing and curve fitting for DRCs with a variable slope using four parameters. […] Values were normalized to both PC and NC values from 24 wells each per plate and the Z′ score was calculated. Plates with Z′<0.5 were repeated.
# [3] = tested on: Caco-2 cells; test: Caco-2 A-B permeability assay; format: in vitro ADME; details: A-B, 90 min, pH=7.4; hydrochloride
# Method: (§1) Caco-2 cells were cultivated in 75 cm^2 flasks to 80-90% of confluence according to the ATCC and Millipore recommendations (Millipore protocol note PC1060EN00P) in a humidified atmosphere at 37° C. and 5% CO2. Cells were detached with Trypsin/EDTA solution and re-suspended in the cell culture medium to a final concentration of 2×10^5 cells/mL. 500 μL of the cell suspension was added to each well of an HTS 24-multiwell insert system and 35 mL of prewarmed complete medium was added to the feeder tray. Caco-2 cells were incubated in the multiwell insert system for 10 days before the transport experiments. The medium in the filter plate and feeder tray was changed every other day. After 10 days of cell growth, the integrity of the monolayer was verified by measuring the transepithelial electrical resistance (TEER) for every well using the Millicell-ERS system ohm meter. […] The 24-well insert plate was removed from its feeder plate and placed in a new sterile 24-well transport analysis plate. The medium was aspirated and inserts washed with PBS.
# (§2) To determine the rate of drug transport in apical (A) to basolateral (B) direction, 300 μL of the test compound solution in buffer (HBSS, 5.6 mM glucose, 10 mM HEPES, pH=7.4) was added into the filter wells and 1000 μL of the same buffer was added to wells in the transport analysis plate. The plates were incubated for 90 min. at 37° C. with shaking at 50 rpm. 75 μL aliquots were taken from the apical and basolateral compartment for LC-MS/MS analysis. All samples for LC-MS/MS analysis were extracted by acetonitrile (×2 volume) followed by protein sedimentation by centrifuging at 10000 rpm for 10 minutes. Supernatants were analyzed using the HPLC system coupled with a tandem mass spectrometer.
# (§3) The apparent permeability (Papp) was calculated for the Caco-2 permeability assay using the following equation: Papp=(VA/((Area)×(Time))×([drug]acc/[drug]initial,d), where: […]
# [4] = Caco-2 A-B permeability assay; format: in vitro ADME; details: human, Caco-2, pH 7.4, A-B
# Method: as §1, §2, §3
# [5] = target: CYP 2D6 (Homo sapiens (Human), UniProt P10635); test: P450-Glo CYP450 inhibition, CYP 2D6
# Chain of CYP 2D6 (P10635 whole entry): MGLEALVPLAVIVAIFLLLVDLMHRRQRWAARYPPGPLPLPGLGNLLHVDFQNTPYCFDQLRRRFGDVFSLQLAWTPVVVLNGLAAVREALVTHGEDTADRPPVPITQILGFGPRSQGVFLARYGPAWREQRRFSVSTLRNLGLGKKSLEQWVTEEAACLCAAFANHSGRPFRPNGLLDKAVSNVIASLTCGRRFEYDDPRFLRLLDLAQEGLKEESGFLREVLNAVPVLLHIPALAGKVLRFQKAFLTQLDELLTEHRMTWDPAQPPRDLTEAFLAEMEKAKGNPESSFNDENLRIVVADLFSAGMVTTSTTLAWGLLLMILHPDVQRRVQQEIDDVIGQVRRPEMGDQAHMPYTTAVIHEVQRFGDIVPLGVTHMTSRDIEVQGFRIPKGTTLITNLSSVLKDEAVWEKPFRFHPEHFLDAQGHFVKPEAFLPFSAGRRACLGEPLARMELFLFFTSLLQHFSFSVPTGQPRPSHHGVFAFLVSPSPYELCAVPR
# Method: CYP450 inhibition profiling provides valuable information regarding any possible drug-drug interactions for a test compound.
# All experiments were performed using P450-Glo™ Assay Systems (Promega) in accordance with the manufacturer's protocols. The P450-Glo™ Assays provide a luminescent readout-based method for measuring cytochrome P450 activity. A conventional cytochrome P450 reaction was performed by incubating the cytochrome P450 and a luminogenic cytochrome P450 substrate. The substrates in the P450-Glo™ assays are derivatives of beetle luciferin. The derivatives themselves are not substrates for luciferase but are converted by cytochrome P450s to luciferin, which in turn reacts with luciferase to produce light. The amount of light produced was directly proportional to cytochrome P450 activity. All test points were performed in quadruplicates. Control membranes (without CYPs) represented the Negative control (baseline).
# The following reference compounds were used to assess CYP inhibition: […]
Compound,Ub-charging of FLAG-Parkin C431S (WB) [1],EC50 [2],also measured
Cc1nc(NC(=O)Cn2cnc3c2CCCC3)ccc1-c1ccccc1 [Compound 5],enhanced Ub-charging,63 nM,–
"CC(C)NCC(O)COc1cccc2ccccc12 (stereo not shown) [Propranolol, propranolol hydrochloride, reference compound]",–,–,"Permeability (individual replicates 1, 2) [3]: 20.6 10^−6 cm/s; Papp at 90 min ([4]; read-out: Permeability (individual replicates 1, 2)): 23 ×10⁻⁶ cm/s; Papp at 90 min ([4]; read-out: Permeability Mean): 21.8 ×10⁻⁶ cm/s"
"C=C[C@H]1C[N@@]2CC[C@H]1C[C@@H]2[C@@H](O)c1ccnc2ccc(OC)cc12 [quinidine, reference compound]",–,–,inhibition at 1 µM [5]: 88.4%

# More lines, main results first:
Ub-charging of FLAG-Parkin C431S (WB) [1],EC50 [2],Compound,also measured
enhanced Ub-charging,36 nM,c1ccc(CN2CCCN(c3ncnc4c3CCCCC4)CC2)cc1 [Compound 32],–
enhanced Ub-charging,111 nM,c1ccc(CN2CCCN(c3ncnc4c3CCCC4)CC2)cc1 [Compound 33],–
